Laboratory results reported in PubChem BioAssay AID2060358 (Molecular Pharmacology Branch, DTP, NCI, 2025).

Test system: 254851-301-R-J1-PDC spheroids, viability % test/control
Experiment: Anticancer human tumor 254851-301-R-J1-PDC patient-derived colon carcinoma cell line growth inhibition [TAK]
Conditions: spheroids with HUVEC and MSC; for viability, T/C: stronger effect = lower value
How it was run: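 Drug combinations, each paired with TAK-243 or ipatasertib, were tested on multi-cell spheroids of 60% malignant cells, 25% HUVEC and 15% hMSC. Top concentrations were at or near the clinical Cmax (10 microM if undetermined), decreasing by half-log; viability is given as % test/control.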

[1] = curve of first compound, second compound 0.3 µM
[2] = curve of first compound, second compound 0.949 µM
[3] = curve of first compound, second compound 3 µM
[4] = curve of first compound, second compound 9.49 µM
[5] = curve of first compound, second compound 30 µM
[6] = second compound 0.3 µM, first compound 0.000316 µM
[7] = second compound 0.3 µM, first compound 0.001 µM
[8] = second compound 0.3 µM, first compound 0.00316 µM
[9] = second compound 0.3 µM, first compound 0.01 µM
[10] = second compound 0.949 µM, first compound 0.000316 µM
[11] = second compound 0.949 µM, first compound 0.001 µM
[12] = second compound 0.949 µM, first compound 0.00316 µM
[13] = second compound 0.949 µM, first compound 0.01 µM
[14] = second compound 3 µM, first compound 0.000316 µM
[15] = second compound 3 µM, first compound 0.001 µM
[16] = second compound 3 µM, first compound 0.00316 µM
[17] = second compound 3 µM, first compound 0.01 µM
[18] = second compound 9.49 µM, first compound 0.000316 µM
[19] = second compound 9.49 µM, first compound 0.001 µM
[20] = second compound 9.49 µM, first compound 0.00316 µM
[21] = second compound 9.49 µM, first compound 0.01 µM
[22] = second compound 30 µM, first compound 0.000316 µM
[23] = second compound 30 µM, first compound 0.001 µM
[24] = second compound 30 µM, first compound 0.00316 µM
[25] = second compound 30 µM, first compound 0.01 µM
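Also: spheroids exposed to drugs for seven days before viability readout.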
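For viability, T/C in this document: 100% = DMSO vehicle control viability.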

SMILES	IC50 [1] [nM]	IC50 [2] [nM]	IC50 [3] [nM]	IC50 [4] [nM]	IC50 [5] [nM]	viability, T/C [6] [%]	viability, T/C [7] [%]	viability, T/C [8] [%]	viability, T/C [9] [%]	viability, T/C [10] [%]	viability, T/C [11] [%]	viability, T/C [12] [%]	viability, T/C [13] [%]	viability, T/C [14] [%]	viability, T/C [15] [%]	viability, T/C [16] [%]	viability, T/C [17] [%]	viability, T/C [18] [%]	viability, T/C [19] [%]	viability, T/C [20] [%]	also measured
CC(C)NCC(C(=O)N1CCN(c2ncnc3c2C(C)CC3O)CC1)c1ccc(Cl)cc1 (configuration not stated)																					viability, T/C (compound 0.3 µM): 91.8% [middle of 10 runs]; viability, T/C (compound 0.949 µM): 91.8% [middle of 10 runs]; viability, T/C (compound 3 µM): 95% [middle of 10 runs]; viability, T/C (compound 9.49 µM): 91.9% [middle of 10 runs]; viability, T/C (compound 30 µM): 86% [middle of 10 runs]; IC50 (compound alone, run of 02/28/2020): > 30000 nM; IC50 (compound alone, run of 03/19/2020): > 30000 nM
CC(C)CC(NC(=O)C(Cc1ccccc1)NC(=O)c1cnccn1)B(O)O (configuration not stated) + CC(C)NCC(C(=O)N1CCN(c2ncnc3c2C(C)CC3O)CC1)c1ccc(Cl)cc1	> 10	> 10	> 10	> 10	> 10	109	112	103	79.9	101	107	103	87.9	110	109	111	86.6	112	104	99	viability, T/C (second compound 0.3 µM, first compound 31.6 pM): 118%; viability, T/C (second compound 0.3 µM, first compound 0.0001 µM): 124%; viability, T/C (second compound 0.949 µM, first compound 31.6 pM): 112%; viability, T/C (second compound 0.949 µM, first compound 0.0001 µM): 114%; viability, T/C (second compound 3 µM, first compound 31.6 pM): 108%; viability, T/C (second compound 3 µM, first compound 0.0001 µM): 114%; viability, T/C (second compound 9.49 µM, first compound 31.6 pM): 106%; viability, T/C (second compound 9.49 µM, first compound 0.0001 µM): 110%; viability, T/C [21]: 81.4%; viability, T/C (second compound 30 µM, first compound 31.6 pM): 90.3%; viability, T/C (second compound 30 µM, first compound 0.0001 µM): 98.9%; viability, T/C [22]: 94.4%; viability, T/C [23]: 89%; viability, T/C [24]: 85.7%; viability, T/C [25]: 71%
CC(C)CC(NC(=O)CNC(=O)c1cc(Cl)ccc1Cl)B1OC(=O)CC(CC(=O)O)(C(=O)O)O1 (configuration not stated) + CC(C)NCC(C(=O)N1CCN(c2ncnc3c2C(C)CC3O)CC1)c1ccc(Cl)cc1	53.7	49.7	49.2	56.9	57.6	103	100	95.8	101	98.6	102	95.3	95	95.8	107	98.9	102	96.8	101	97.7	viability, T/C (second compound 0.3 µM, first compound 0.0316 µM): 73.7%; viability, T/C (second compound 0.3 µM, first compound 0.1 µM): 22.2%; viability, T/C (second compound 0.949 µM, first compound 0.0316 µM): 67.3%; viability, T/C (second compound 0.949 µM, first compound 0.1 µM): 23.2%; viability, T/C (second compound 3 µM, first compound 0.0316 µM): 70.2%; viability, T/C (second compound 3 µM, first compound 0.1 µM): 17.9%; viability, T/C [21]: 95.1%; viability, T/C (second compound 9.49 µM, first compound 0.0316 µM): 76.6%; viability, T/C (second compound 9.49 µM, first compound 0.1 µM): 24.5%; viability, T/C [22]: 78.2%; viability, T/C [23]: 63%; viability, T/C [24]: 81.4%; viability, T/C [25]: 86%; viability, T/C (second compound 30 µM, first compound 0.0316 µM): 80%; viability, T/C (second compound 30 µM, first compound 0.1 µM): 24.4%
